Laboratory results from US12577201B2, “Glutamine analogs” (Jacobio Pharmaceuticals Co., Ltd., priority 2020, dated 2026).

Tests used:
[1] = Plasma stability, dog plasma; assay type: in vitro ADME; conditions: 1 μM, 37° C., 4 hours
Description: (§1) For metabolic stability, plasma from dog, monkey, swine and human were used. For stability, prodrugs (1 μM) were spiked in respective solutions and incubated in an orbital shaker at 37° C. 50 μL aliquots of the mixture in duplicate were removed, and the reaction quenched by addition of four times the volume of ice cold acetonitrile spiked with the internal standard (Dexamethasone 100 ng/mL). The samples were vortexed for 30 s and centrifuged at 15000 g for 5 min. 100 μL of the supernatant was diluted with 100 μL of water and transferred to the 0.6 mL plastic tubes on 96-well plate. Prodrug disappearance was monitored over time using a liquid chromatography and tandem mass spectrometry (LC-MS/MS).
(§2) For LC-MS/MS, prodrugs were analyzed on a ExionLC AD HPLC system coupled to REF Triple Quad 5500+ mass spectrometer with an ESI interface on an Phenomenex Kinetex 5 m C18 100A (2.1*50) mm UPLC column. The autosampler was temperature controlled and was operated at 4° C. The mobile phase used for the chromatographic separation was composed of acetonitrile/water containing 0.10% formic acid and will run at a flow rate of 0.6 mL/min for 3.5 min using gradient elution. The column effluent was monitored using […], equipped with an electrospray probe set in the positive ionization mode. Samples were introduced into the ionization source through a heated nebulized probe (400° C.). Disappearance of prodrugs will be measured from ratio of peak areas of analyte to IS.
(§3) For quantification of compound remaining, disappearance of prodrugs was measured from ratio of peak areas of analyte to IS.

[2] = Plasma stability, monkey plasma; conditions: 1 μM, 37° C., 4 hours
Description: as §1, with “The samples were vortexed for 30 s and centrifuged at 15000 g for 5 min.” left out
as §2, §3

[3] = Plasma stability, swine plasma; conditions: 1 μM, 37° C., 4 hours
Description: as §1, with “The samples were vortexed for 30 s and centrifuged at 15000 g for 5 min.” left out
as §2, §3

[4] = Plasma stability, human plasma; conditions: 1 μM, 37° C., 4 hours
Description: as §1, with “The samples were vortexed for 30 s and centrifuged at 15000 g for 5 min.” left out
as §2, §3

[5] = Stability in liver microsomes, human; assay type: in vitro ADME; conditions: 60 minutes, read-out: In vitro Clint
Description: (§4) For metabolic stability, microsomes from human, monkey, dog, rat and mouse were used. For stability, prodrugs (1 μM) were spiked in each microsomes matrix and incubated in an orbital shaker at 37° C. Aliquots of 50 μL were taken from the reaction solution at 0, 15, 30, 45 and 60 min. The reaction was stopped by the addition of 4 volumes of cold acetonitrile with IS (100 nM alprazolam, 200 nM labetalol, 200 nM caffeine and 2 μM ketoprofen). Samples were centrifuged at 3, 220 g for 40 minutes. Aliquot of 100 μL of the supernatant was mixed with 100 μL of ultra-pure H2O and then used for LC-MS/MS analysis.
(§5) For LC-MS/MS, prodrugs were analyzed on an API 4000 instrument from AB Inc (Canada) with an ESI interface coupled to Shimadzu LC system on an Waters XSelect HSS T3 C18, 2.5 m, 2.1×30 mm column.
(§6) For data analysis, peak areas were determined from extracted ion chromatograms. The slope value, k, was determined by linear regression of the natural logarithm of the remaining percentage of the parent drug vs. incubation time curve. The in vitro half-life (in vitro t1/2) was determined from the slope value: in vitro t1/2=−(0.693/k)
(§7) Conversion of the in vitro t1/2 (min) into the in vitro intrinsic clearance (in vitro CLint, in μL/min/mg protein) was done using the following equation (mean of duplicate determinations): […]

[6] = Stability in liver microsomes, monkey; assay type: in vitro ADME; conditions: 60 minutes, read-out: In vitro Clint
Description: as §4, §5, §6, §7

[7] = Stability in liver microsomes, dog; assay type: in vitro ADME; conditions: 60 minutes, read-out: In vitro Clint
Description: as §4, §5, §6, §7

[8] = Stability in liver microsomes, rat; assay type: in vitro ADME; conditions: 60 minutes, read-out: In vitro Clint
Description: as §4, §5, §6, §7

[9] = Stability in liver microsomes, mouse; assay type: in vitro ADME; conditions: 60 minutes, read-out: In vitro Clint
Description: as §4, §5, §6, §7

[10] = test system: MC38 tumor cells; assay: Anti-tumor efficacy in MC38 model in C57BL/6 mouse (Example 11); assay type: in vivo; conditions: C57BL/6, MC38, 2 μmol/kg S.C. QD; for T/C (%) / TGI (%) / TV (mm^3) (Mean ± SEM) D6 / TV (mm^3) (Mean ± SEM) D10 / TV (mm^3) (Mean ± SEM) D13 / TV (mm^3) (Mean ± SEM) D17 / TV (mm^3) (Mean ± SEM) D20: Example 11; for TV (mm^3) at D21 (Mean ± SEM): Table 13
Description: Animal species: Mus musculus; Strain: C57BL/6; Age: 6-8 weeks; Sex: female. The MC38 tumor cells were maintained in vitro in DMEM medium supplemented with 10% FBS at 37° C., 5% CO2. The cells growing in an exponential growth phase were harvested and counted for tumor inoculation. The culture MC38 were harvested, re-suspended in PBS containing 50% Matrigel at a density of 1×10^7 cells/mL. Each mouse was inoculated subcutaneously in the right flank region with 1×10^6 cells in 0.1 mL of PBS containing 50% Matrigel for tumor development.
The treatments were started when the mean tumor size reached 82-129 mm^3 (average tumor size 102 mm^3). Each group contained 6 tumor bearing mice. Group 1 was treated with Vehicle (10% DMSO+90% Saline), S.C., QD.
(§8) In vivo efficacy was examined according to absolute tumor growth inhibition (TGI) and the safety was evaluated according to weight change and survival in mice.
Statistical analysis of difference in tumor volume among the groups was performed using one-way ANOVA followed by individual comparisons using Games-Howell post-hoc test (equal variance not assumed). All data was analyzed using SPSS 22.0 software.

[11] = Body weight of C57BL/6 mice bearing MC38 tumors (Example 11); assay type: in vivo, Mus musculus; conditions: C57BL/6, MC38, 2 μmol/kg S.C. QD; for BW Change (%): D6 to D20
Description: The treatments were started when the mean tumor size reached 82-129 mm^3 (average tumor size 102 mm^3). Each group contained 6 tumor bearing mice. Group 1 was treated with Vehicle (10% DMSO+90% Saline), S.C., QD. Group 2 was given treatments with compound 2 at 2 μmol/kg, S.C., QD. Group 3 was given treatments with compound 81 at 2 μmol/kg, S.C., QD. Group 4 was given treatments with compound 443 at 2 μmol/kg, S.C., QD. Group 5 was given treatments with compound 459 at 2 μmol/kg, S.C., QD. Group 6 was given treatments with compound 3 at 2 μmol/kg, S.C., QD.
as §8

| Compound | plasma stability (compound remaining) [1] | plasma stability (compound remaining) [2] | plasma stability (compound remaining) [3] | plasma stability (compound remaining) [4] | microsomal CLint at 1 μM [5] [µL/min/mg] | microsomal CLint at 1 μM [6] [µL/min/mg] | microsomal CLint at 1 μM [7] [µL/min/mg] | microsomal CLint at 1 μM [8] [µL/min/mg] | microsomal CLint at 1 μM [9] [µL/min/mg] | T/C (%) [10] [%] | TGI (%) [10] [%] | TV (mm^3) (Mean ± SEM) D6 [10] | TV (mm^3) (Mean ± SEM) D10 [10] | TV (mm^3) (Mean ± SEM) D13 [10] | TV (mm^3) (Mean ± SEM) D17 [10] | TV (mm^3) (Mean ± SEM) D20 [10] | TV (mm^3) at D21 (Mean ± SEM) [10] [mm^3] | BW(g) (Mean ± SEM) Beginning (D6) [11] | BW Change (%) [11] | BW(g) (Mean ± SEM) End (D20) [11] |
| --- | --- | --- | --- | --- | --- | --- | --- | --- | --- | --- | --- | --- | --- | --- | --- | --- | --- | --- | --- | --- |
| CO[C@@H](CCSC)C(=O)N[C@@H](CCC(=O)C=[N+]=[N-])C(=O)OC(C)C [Compound 443, isopropyl (S)-6-diazo-2-((S)-2-methoxy-4-(methylthio)butanamido)-5-oxohexanoate] | substantially intact | substantially intact | substantially intact | substantially intact | 73.5 | 180 | 81.9 | 239 | 408 | 21.5 | 78.5 | 102 ± 6 | 152 ± 25 | 267 ± 65 | 384 ± 95 | 500 ± 119 | 500 ± 119 | 19.9 ± 0.6 | +11.9% | 22.3 ± 0.5 |
| CO[C@@H](C)C(=O)N[C@@H](CCC(=O)C=[N+]=[N-])C(=O)SC(C)C [Compound 459, S-isopropyl (S)-6-diazo-2-((S)-2-methoxypropanamido)-5-oxohexanethioate] | substantially intact | substantially intact | substantially intact | substantially intact | 18.9 | 130 | 9.57 | 115 | 71.7 | 11.8 | 88.2 | 102 ± 5 | 148 ± 22 | 183 ± 30 | 281 ± 65 | 275 ± 59 | 275 ± 59 | 19.9 ± 0.3 | +6.3% | 21.1 ± 0.5 |
